Tests used:
Assay in all cases: relative viability (nuclei count vs DMSO), 5 days (fraction); higher = more cells survive
NCI-H647 = tested on: NCI-H647
In short: (§1)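 Lung cancer cell lines, seeded in 1536-well plates, were treated the following day by pin tool with a single drug or with five library-drug doses (not always all listed) in √10 steps on top of a fixed anchor-drug dose. Cells were fixed and nuclei stained in one step after 5 days, and nuclei were counted. Relative viability is the nuclei count for treated wells divided by that for vehicle wells, reported as medians of duplicate plates.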

NCI-H1395 = tested on: NCI-H1395
In short: as §1

HCC-44 = tested on: HCC-44
In short: as §1

NCI-H2347 = tested on: NCI-H2347
In short: as §1

NCI-H2126 = tested on: NCI-H2126
In short: as §1

NCI-H596 = tested on: NCI-H596
In short: as §1

BEN = tested on: BEN
In short: as §1

NCI-H1993 = tested on: NCI-H1993
In short: as §1

NCI-H838 = tested on: NCI-H838
In short: as §1

NCI-H650 = tested on: NCI-H650
In short: as §1

NCI-H522 = tested on: NCI-H522
In short: as §1

LCLC-103H = tested on: LCLC-103H
In short: as §1

EMC-BAC-2 = tested on: EMC-BAC-2
In short: as §1

NCI-H727 = tested on: NCI-H727
In short: as §1

201T = tested on: 201T
In short: as §1

NCI-H23 = tested on: NCI-H23
In short: as §1

NCI-H2087 = tested on: NCI-H2087
In short: as §1

NCI-H3122 = tested on: NCI-H3122
In short: as §1

NCI-H441 = tested on: NCI-H441
In short: as §1

NCI-H2023 = tested on: NCI-H2023
In short: as §1

LOU-NH91 = tested on: LOU-NH91
In short: as §1

HARA = tested on: HARA
In short: as §1

COc1cc2nccc(Oc3ccc(NC(=O)Nc4cc(C)on4)c(Cl)c3)c2cc1OC [Tivozanib] + Cc1cc(Nc2cc(N3CCN(C)CC3)nc(Sc3ccc(NC(=O)C4CC4)cc3)n2)n[nH]1 [Tozasertib] (partner 0.1 µM)
relative viability (NCI-H647; first compound 0.005 µM): 0.269 | relative viability (NCI-H647; first compound 0.01581 µM): 0.203 | relative viability (NCI-H647; first compound 0.05 µM): 0.263 | relative viability (NCI-H647; first compound 0.1581 µM): 0.332 | relative viability (NCI-H647; first compound 0.5 µM): 0.302 | relative viability (NCI-H1395; first compound 0.005 µM): 0.734 | relative viability (NCI-H1395; first compound 0.01581 µM): 0.738 | relative viability (NCI-H1395; first compound 0.05 µM): 0.81 | relative viability (NCI-H1395; first compound 0.1581 µM): 0.681 | relative viability (NCI-H1395; first compound 0.5 µM): 0.807 | relative viability (HCC-44; first compound 0.005 µM): 0.889 | relative viability (HCC-44; first compound 0.01581 µM): 0.9 | relative viability (HCC-44; first compound 0.05 µM): 0.839 | relative viability (HCC-44; first compound 0.1581 µM): 1.04 | relative viability (HCC-44; first compound 0.5 µM): 0.773 | relative viability (NCI-H2347; first compound 0.01581 µM): 0.54 | relative viability (NCI-H2347; first compound 0.05 µM): 0.594 | relative viability (NCI-H2347; first compound 0.5 µM): 0.511 | relative viability (NCI-H2126; first compound 0.005 µM): 0.804 | relative viability (NCI-H2126; first compound 0.01581 µM): 0.846 | relative viability (NCI-H2126; first compound 0.05 µM): 0.915 | relative viability (NCI-H2126; first compound 0.1581 µM): 0.667 | relative viability (NCI-H2126; first compound 0.5 µM): 0.857 | relative viability (NCI-H596; first compound 0.005 µM): 0.873 | relative viability (NCI-H596; first compound 0.01581 µM): 0.888 | relative viability (NCI-H596; first compound 0.05 µM): 0.939 | relative viability (NCI-H596; first compound 0.5 µM): 0.885 | relative viability (BEN; first compound 0.005 µM): 0.515 | relative viability (BEN; first compound 0.01581 µM): 0.425 | relative viability (BEN; first compound 0.05 µM): 0.572 | relative viability (BEN; first compound 0.5 µM): 0.542 | relative viability (NCI-H1993; first compound 0.005 µM): 0.559 | relative viability (NCI-H1993; first compound 0.01581 µM): 0.585 | relative viability (NCI-H1993; first compound 0.05 µM): 0.568 | relative viability (NCI-H1993; first compound 0.1581 µM): 0.485 | relative viability (NCI-H1993; first compound 0.5 µM): 0.513 | relative viability (NCI-H838; first compound 0.005 µM): 0.268 | relative viability (NCI-H838; first compound 0.01581 µM): 0.291 | relative viability (NCI-H838; first compound 0.05 µM): 0.29 | relative viability (NCI-H838; first compound 0.5 µM): 0.291 | relative viability (NCI-H650; first compound 0.005 µM): 0.763 | relative viability (NCI-H650; first compound 0.01581 µM): 0.743 | relative viability (NCI-H650; first compound 0.05 µM): 0.743 | relative viability (NCI-H650; first compound 0.1581 µM): 0.732 | relative viability (NCI-H650; first compound 0.5 µM): 0.594 | relative viability (NCI-H522; first compound 0.005 µM): 0.581 | relative viability (NCI-H522; first compound 0.01581 µM): 0.553 | relative viability (NCI-H522; first compound 0.05 µM): 0.581 | relative viability (NCI-H522; first compound 0.1581 µM): 0.536 | relative viability (NCI-H522; first compound 0.5 µM): 0.577 | relative viability (LCLC-103H; first compound 0.005 µM): 0.525 | relative viability (LCLC-103H; first compound 0.01581 µM): 0.503 | relative viability (LCLC-103H; first compound 0.05 µM): 0.449 | relative viability (LCLC-103H; first compound 0.1581 µM): 0.51 | relative viability (LCLC-103H; first compound 0.5 µM): 0.549 | relative viability (EMC-BAC-2; first compound 0.005 µM): 0.255 | relative viability (EMC-BAC-2; first compound 0.01581 µM): 0.3 | relative viability (EMC-BAC-2; first compound 0.05 µM): 0.295 | relative viability (EMC-BAC-2; first compound 0.1581 µM): 0.326 | relative viability (EMC-BAC-2; first compound 0.5 µM): 0.266 | relative viability (NCI-H727; first compound 0.005 µM): 0.533 | relative viability (NCI-H727; first compound 0.01581 µM): 0.649 | relative viability (NCI-H727; first compound 0.05 µM): 0.588 | relative viability (NCI-H727; first compound 0.1581 µM): 0.635 | relative viability (NCI-H727; first compound 0.5 µM): 0.886 | relative viability (201T; first compound 0.005 µM): 0.974 | relative viability (201T; first compound 0.01581 µM): 0.959 | relative viability (201T; first compound 0.05 µM): 0.981 | relative viability (201T; first compound 0.1581 µM): 0.985 | relative viability (201T; first compound 0.5 µM): 0.996 | relative viability (NCI-H23; first compound 0.005 µM): 0.324 | relative viability (NCI-H23; first compound 0.01581 µM): 0.323 | relative viability (NCI-H23; first compound 0.05 µM): 0.547 | relative viability (NCI-H23; first compound 0.1581 µM): 0.406 | relative viability (NCI-H23; first compound 0.5 µM): 0.427 | relative viability (NCI-H2087; first compound 0.005 µM): 0.22 | relative viability (NCI-H2087; first compound 0.01581 µM): 0.316 | relative viability (NCI-H2087; first compound 0.05 µM): 0.261 | relative viability (NCI-H2087; first compound 0.1581 µM): 0.338 | relative viability (NCI-H2087; first compound 0.5 µM): 0.303 | relative viability (NCI-H3122; first compound 0.005 µM): 0.418 | relative viability (NCI-H3122; first compound 0.01581 µM): 0.428 | relative viability (NCI-H3122; first compound 0.05 µM): 0.468 | relative viability (NCI-H3122; first compound 0.1581 µM): 0.586 | relative viability (NCI-H3122; first compound 0.5 µM): 0.253 | relative viability (NCI-H441; first compound 0.005 µM): 0.682 | relative viability (NCI-H441; first compound 0.01581 µM): 0.635 | relative viability (NCI-H441; first compound 0.05 µM): 0.596 | relative viability (NCI-H441; first compound 0.1581 µM): 0.768 | relative viability (NCI-H441; first compound 0.5 µM): 0.474 | relative viability (NCI-H2023; first compound 0.005 µM): 0.306 | relative viability (NCI-H2023; first compound 0.01581 µM): 0.324 | relative viability (NCI-H2023; first compound 0.05 µM): 0.405 | relative viability (NCI-H2023; first compound 0.1581 µM): 0.4 | relative viability (NCI-H2023; first compound 0.5 µM): 0.413 | relative viability (LOU-NH91; first compound 0.005 µM): 0.644 | relative viability (LOU-NH91; first compound 0.01581 µM): 0.669 | relative viability (LOU-NH91; first compound 0.05 µM): 0.775 | relative viability (LOU-NH91; first compound 0.1581 µM): 0.759 | relative viability (LOU-NH91; first compound 0.5 µM): 0.659 | relative viability (HARA; first compound 0.005 µM): 0.113 | relative viability (HARA; first compound 0.01581 µM): 0.107 | relative viability (HARA; first compound 0.05 µM): 0.112 | relative viability (HARA; first compound 0.1581 µM): 0.133 | relative viability (HARA; first compound 0.5 µM): 0.145

— the supplement of paper PMC10307832
